Laboratory results from US8716326B2, “Isoindolinone derivatives, preparation method thereof and a pharmaceutical composition comprising same” (Korea Research Institute of Chemical Technology, priority 2009, dated 2014).

System: Runx2
Assay: Runx2 activity, 6xOSE2-Luc luciferase reporter in transfected C2C12 cells
Format: cell-based, Mouse
Settings: 24 hrs; for fold induction at 2.5 µM / fold induction at 5 µM / fold induction at 10 µM / fold induction at 20 µM: Mus musculus, read-out: luciferase activity relative to control set as 1
Procedure, shortened: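 Compound exposure of 24 h at 2.5, 5.0, 10 and 20 μM, in 5% FBS DMEM, was applied to transfected C2C12 cells with an OSE2 hexamer-driven luciferase construct reporting Runx2 activity. Read-out: dual-luciferase signal in cell lysates, normalised to equal-volume DMSO control (=1).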

Row | SMILES | fold induction at 2.5 µM (2.5 μM) | fold induction at 5 µM (5.0 μM) | fold induction at 10 µM (10 μM) | fold induction at 20 µM (20 μM) | luciferase activity relative to control set as 1 (2.5 μM) | luciferase activity relative to control set as 1 (5.0 μM) | luciferase activity relative to control set as 1 (10 μM) | luciferase activity relative to control set as 1 (20 μM)
1 | NC(=O)c1cccc(-c2cccc3c2CN(Cc2ccc(C(=O)Nc4ccccc4N)cc2)C3=O)c1 [Example 26, 3-[2-(4-[(2-aminophenyl)carbamoyl]phenylmethyl)-1-oxo-2,3-dihydro-1H-isoindol-4-yl]benzamide] | 1.6 | 2.3 | 4.4 | 18.4 |  |  |  | 
2 | Cc1c(C(=O)NCCCCCC(=O)Nc2ccccc2N)cccc1-c1ccccc1 [Example 81, N-(5-(2-aminophenylcarbamoyl)pentyl)-2-methyl-3-phenyl-benzamide] | 1.6 | 3.4 | 7.5 | 10.7 |  |  |  | 
3 | Nc1ccccc1NC(=O)c1ccc(CN2Cc3c(cccc3-c3ccc4c(c3)OCO4)C2=O)cc1 [Example 19, N-(2-aminophenyl)-4-((4-(benzo[d][1,3]dioxol-6-yl)-1-oxoisoindolin-2-yl)methyl)benzamide] | 10.8 | 9.9 | 11.7 | 14 |  |  |  | 
4 | Cc1cc(C)cc(-c2ccc3c(c2)CN(Cc2ccc(C(=O)Nc4ccccc4N)cc2)C3=O)c1 [Example 62, N-(2-aminophenyl)-4-((5-(3,5-dimethylphenyl)-1-oxoisoindolin-2-yl)methyl)benzamide] | 4.6 | 5.8 | 5.5 | 6.6 |  |  |  | 
5 | Cc1cc(C(=O)NCCCCCC(=O)Nc2ccccc2N)ccc1Br [Example 85, N-(5-(2-aminophenylcarbamoyl)pentyl)-4-bromo-3-methylbenzamide] | 2.15 | 6.7 | 13.9 | 14.3 |  |  |  | 
6 | COc1cc(C(=O)NCc2ccc(C(=O)Nc3ccccc3N)cc2)c(C)c(-c2ccc(C(F)(F)F)cc2)c1OC [Example 78, N-(2-aminophenyl)-4-((2-methyl-3-(4-trifluoromethylphenyl)-4,5-dimethoxy-benzamido)methyl)benzamide] | 6.4 | 12.8 | 19.1 | 21.1 |  |  |  | 
7 | Cc1c(C(=O)NCc2ccc(C(=O)Nc3ccccc3N)cc2)cccc1-c1cccc(N)c1 [Example 72, N-(2-aminophenyl)-4-((2-methyl-3-(3-aminophenyl)benzmido)methyl)benzamide] |  |  |  |  | 17.6 fold | 29.8 fold | 29.6 fold | 31.4 fold
8 | COc1cc2c(c(-c3cccnc3)c1OC)CN(CCCCCC(=O)Nc1ccccc1N)C2=O [Example 33, N-(2-aminophenyl)-6-(5,6-dimethoxy-1-oxo-4-(pyridin-3-yl)isoindolin-2-yl)hexanamide] | 1.8 | 3.4 | 10 | 29 |  |  |  | 
9 | COc1cc2c(c(-c3cc(C)cc(C)c3)c1OC)CN(CCCCCC(=O)Nc1ccccc1N)C2=O [Example 32, N-(2-aminophenyl)-6-(5,6-dimethoxy-4-(3,5-dimethylphenyl)-1-oxoisoindolin-2-yl)hexanamide] | 4.4 | 9.2 | 18.5 | 23.8 |  |  |  | 
10 | CC(C)(C)c1ccc(-c2cccc3c2CN(Cc2ccc(C(=O)Nc4ccccc4N)cc2)C3=O)cc1 [Example 28, 4-((4-(4-tert-butylphenyl)-1-oxoisoindolin-2-yl)methyl)-N-(2-aminophenyl)benzamide] | 4.6 | 7.7 | 14.3 | 23.7 |  |  |  | 
11 | Cc1c(C(=O)NCc2ccc(C(=O)Nc3ccccc3N)cc2)cccc1-c1ccccc1 [Example 69, N-(2-aminophenyl)-4-((2-methyl-3-phenyl-benzamido)methyl)benzamide] | 13.5 | 22 | 29.2 | 30.6 |  |  |  | 
